Reference: patent US6225478A, “Iridoid derivatives and neovascularization inhibitors containing the same as active ingredient” (Tsumura & Co., priority 1999, dated 2001)

Columns and labels:
[1] = tested on: human umbilical-vein endothelial cells (HUVEC); experiment: Tube Formation Assay (TFA) Test, HUVEC in collagen gel; type: cell-based; details: Tables 75-83, 0.32 mM sample solution, method as for Compounds 1 through 60; for inhibition at 320 µM (stock): Homo sapiens, HUVEC, read-out: TFA Inhibition rate (%)
Procedure: Furthermore, the sample liquids of compounds used in the CPA and CMA tests were prepared in the manner described below. Firstly, after weighing out each compound, a calculated amount of DMSO was added. After dissolving the compound in the DMSO, phosphate buffered physiological saline (PBS (-)) was added to bring the sample concentration to 1 mg/ml in PBS (-). The amount of DMSO used to dissolve the compounds was adjusted in advance to that the concentration of DMSO at that time was 5%. The resulting liquids were diluted 10-fold with 5% DMSO-PBS (-) solution to prepare sample solutions having a concentration of 0.1 mg/ml. In the TFA test, 320 μl of the prepared 1 mg/ml sample solutions were removed followed by addition of 680 μl of PBS (-) to prepare samples having a concentration of […]. Moreover, 100 μl of this solution was removed followed by addition of 900 μl of PBS (-) to dilute 10-fold and prepare samples having a concentration of 1 μg/ml. P [Cell Proliferation Assay (CPA) Test]
To begin with, 8 volumes of Type 1-A cell matrix (manufactured by Gibco Co.), 1 volume of 10×M119, and 1 volume of reconstituted buffer [200 mM HEPES, 0.05 N sodium hydroxide, 260 mM sodium bicarbonate] were slowly mixed under cooling with ice while avoiding bubbling to form a collagen gel. This collagen gel was distributed in a NUNC 24-well plate at 310 μl/well followed by allowing to stand undisturbed for 2 hours at 37° C. to solidify the gel.
Next, the 7th subculture of HUVEC (1×10^5 cells/ml) obtained from the first generation in the same manner as above were disseminated at 500 μl/well. The cells were cultured for 2 hours at 37° C. to allow the cells to make contact with the collagen. After then removing the medium by aspiration, 50 μl of sample solution were added followed by addition of 310 μl/well of freshly prepared collagen gel and culturing for 1 hour and 10 minutes at 37° C. to solidify the double-layer gel.
1 ml/well of M-199 medium containing 20% FCS, 30 ng /ml of b-FGF and 0.1 μM PMA were added to the wells followed by culturing for 20 hours at 37° C. in the presence of 5% CO2.
Measurement of the lengths of the formed tubes was performed using the public domain NIH Image with a computer.
Evaluation was performed by calculating the inhibition rate (%) of tube formation according to the following formula.
Inhibition rate (%)=100-((formed tube length in presence of sample-formed tube length in presence of control (-))×100/(formed tube length in presence of control (+)-formed tube length in presence of control (-)))
(§1) Samples were prepared using the present compounds of Compound No. I-60 through I-315. More specifically, 32 μl of a 20 mM sample solution dissolved in dimethylsulfoxide (DMSO) were removed and brought to a volume of 1 ml with phosphate-buffered saline (PBS) to prepare a sample solution having a concentration of 0.32 mM (containing 3.2% DMSO).
The testing method used for these compounds was the same as that used for the compounds of Compound No. 1 through 60 previously described.

HUFEC = experiment: Cell Migration Assay (CMA) Test, inhibitory rate with control (-) correction; type: cell-based, human; details: Homo sapiens, 24 h, 125 μl of 0.32 mM sample solution in 4.0 ml medium, 80% or more = remarkable
Procedure: as §1
After disseminating the 7th subculture of […] obtained from the first generation at 4 ml/well (3.0×10^5 cells/well) in a collagen-coated 6-well plate (NUNC), the cells were cultured for 48 hours at 37° C. in the presence of 5% CO2. The cells reached nearly a completely confluent state as a result of this culturing.
A double-edged, disposable razor blade was divided into four sections, of which one of those sections was pinched between a pair of forceps. Using this piece of razor blade, the cell surface in the above confluent state was scraped off.
After washing the surface of the wells from which the cells had been scraped off with medium, 4.0 ml of fresh M199 (2+) medium were placed in the wells. 4.0 ml of M199 medium were added to the control (-) well.
125 μl of sample solution (0.32 mM, containing 3.2% dimethylsulfoxide) were added to the wells.
125 μl of PBS solution containing 3.2% dimethylsulfoxide were added to the control wells instead of sample. The cells were cultured for 24 hours at 37° C. in the presence of 5% CO2. After discarding the culture liquid, the cells were fixed for 30 minutes with methanol. Next, after […] the cells for 4 hours with Giemsa stain, the plates were washed with tap water and air dried.
Measurement of cell migration was performed by microscopically counting the number of cells that had newly migrated within the range of a 1 mm×1 mm block. […] The total number of cells counted in blocks 1 through 5 were then totaled to determine the overall total number of cells. Four fields were counted for each well.
Evaluation was performed determining the cell migration inhibitory rate (%) according to the following equation.
Inhibitory rate=100-((number of migrating cells to which sample was added-number of migrating cells of control (-))×100/(number of migrating cells of control (+)-number of migrating cells of control (-)))
If this inhibitory rate was 80% or more, cell migration was assessed as being remarkable.

SMILES	inhibition at 320 µM (stock) [1] [%]	inhibition at 320 µM (stock) (HUFEC) [%]	TFA (inhibition rate, %) [1] [%]
COC(=O)C1=CO[C@@H](OC(=O)NCCO)[C@@H]2C(C)=CC[C@H]12 [I-84]	21.9	8.8	–
COC(=O)C1=CO[C@@H](OC(=O)NCC2CCCCC2)[C@@H]2C(C)=CC[C@H]12 [I-88]	4.7	16.5	–
COC(=O)C1=CO[C@@H](OC(=O)Nc2cccc(C(F)(F)F)c2)[C@H]2[C@@H]1CC[C@@H]2C [I-277]	84.4	12.7	–
COC(=O)C1=CO[C@@H](OC(=O)NCC2CC2)[C@@H]2C(C)=CC[C@H]12 [I-139]	25.6	9.7	–
COC(=O)C1=CO[C@@H](OC(=O)Nc2ccc(OC(F)(F)F)cc2)[C@@H]2C(C)=CC[C@H]12 [I-165]	7.5	12.5	–
COC(=O)C1=CO[C@@H](OC(=O)N2CCN(CCO)CC2)[C@H]2[C@@H]1CC[C@@H]2C [I-180]	7.7	50	–
COC(=O)C1=CO[C@@H](OC(=O)Nc2ccc(Cl)cc2C(F)(F)F)[C@H]2[C@@H]1CC[C@@H]2C [I-265]	3.3	6.3	–
CNC(=O)O[C@@H]1OC=C(C(=O)Nc2nccs2)[C@H]2C[C@@H]3O[C@]3(C)[C@@H]12 [I-62]	28.4	10.6	–
CCCCCCC1CC[C@@H]2C(C(=O)OC)=CO[C@@H](OC(=O)NC)[C@H]12 (stereo partly drawn) [I-300]	14.6	8	–
COC(=O)C1=CO[C@@H](OC(=O)N2CCC2)[C@@H]2C(C)=CC[C@H]12 [I-148]	5.1	3.4	–
CCOC(=O)c1ccc(NC(=O)O[C@@H]2OC=C(C(=O)OC)[C@H]3CC[C@H](C)[C@@H]23)cc1 [I-268]	7.6	8.4	–
CNC(=O)O[C@@H]1OC=C(C(=O)O)[C@H]2CC=C(C)[C@@H]12 [I-307]	–	52.5	50.2
COC(=O)C1=CO[C@@H](OC(=O)NCC(C)C)[C@H]2[C@@H]1CC[C@@H]2C [I-190]	12.8	21.8	–
COC(=O)C1=CO[C@@H](OC(=O)N(C)CCc2ccc(OC)c(OC)c2)[C@H]2[C@@H]1CC[C@@H]2C [I-227]	7.4	17.2	–
COC(=O)C1=CO[C@@H](OC(=O)NCCN(C)C)[C@H]2[C@@H]1CC[C@@H]2C [I-222]	20.8	3.7	–
CNC(=O)O[C@@H]1OC=C(C(=O)N2C[C@@H](C)O[C@@H](C)C2)[C@H]2CC=C(C)[C@@H]12 [I-311]	10.7	7.6	–
CCOc1ccccc1N1CCN(C(=O)O[C@@H]2OC=C(C(=O)OC)[C@H]3CC[C@H](C)[C@@H]23)CC1 [I-243]	8.1	6.7	–
COC(=O)C1=CO[C@@H](OC(=O)N2CCN(c3cccc(C(F)(F)F)c3)CC2)[C@@H]2C(C)=CC[C@H]12 [I-130]	5.5	7.5	–
COC(=O)C1=CO[C@@H](OC(=O)NCCc2ccc(F)cc2)[C@H]2[C@@H]1CC[C@@H]2C [I-212]	7.8	21.5	–
COC(=O)C1=CO[C@@H](OC(=O)N2CCN(CCO)CC2)[C@@H]2C(C)=CC[C@H]12 [I-71]	4.1	25.4	–

SMILES	inhibition at 320 µM (stock) [1] [%]	inhibition at 320 µM (stock) (HUFEC) [%]	TFA (inhibition rate, %) [1] [%]
COC(=O)C1=CO[C@@H](OC(=O)Nc2ccccc2)[C@H]2[C@@H]1CC[C@@H]2C [I-271]	35.1	21.6	–
C[C@@]12O[C@@H]1C[C@@H]1C(C(=O)O)=CO[C@@H](OC(=O)NCCCl)[C@@H]12 [I-69]	18	18.8	–
COC(=O)C1=CO[C@@H](OC(N)=O)[C@@H]2C(C)=CC[C@H]12 [I-70]	75.4	7.1	–
COC(=O)C1=CO[C@@H](OC(=O)NCCCc2ccccc2)[C@@H]2C(C)=CC[C@H]12 [I-112]	7.9	6.8	–
COC(=O)C1=CO[C@@H](OC(=O)NCC2CCCCC2)[C@H]2[C@@H]1CC[C@@H]2C [I-191]	6	8	–
COC(=O)C1=CO[C@@H](OC(=O)N(C)CC2OCCO2)[C@H]2[C@@H]1CC[C@@H]2C [I-198]	2.9	7.9	–
C=CCNC(=O)O[C@@H]1OC=C(C(=O)OC)[C@H]2CC[C@H](C)[C@@H]12 [I-228]	2.7	7.2	–
CCOC(=O)CCCNC(=O)O[C@@H]1OC=C(C(=O)OC)[C@H]2CC=C(C)[C@@H]12 [I-135]	4.7	23.4	–
C[C@]12O[C@H]1C[C@@H]1C(C(=O)O)=CO[C@@H](OC(=O)NCCCl)[C@@H]12 [I-66]	19.7	30.5	–
CNC(=O)OCC1=CC[C@@H]2C(C(=O)OC)=CO[C@@H](OC(=O)NC)[C@H]12 [I-287]	30.1	35.2	–
COC(=O)C1=COC[C@@H]2C(C)=CC[C@H]12 [I-302]	12.5	26.6	–
COC(=O)C1=CO[C@@H](OC(=O)NCc2ccccc2)[C@@H]2C(C)=CC[C@H]12 [I-80]	8.1	5.9	–
COC(=O)C1=CO[C@@H](OC(=O)NCCc2cccs2)[C@@H]2C(C)=CC[C@H]12 [I-92]	15.2	8.1	–
COC(=O)C1=CO[C@@H](OC(=O)NCc2cccc(C(F)(F)F)c2)[C@@H]2C(C)=CC[C@H]12 [I-128]	9.4	8.7	–
COC(=O)C1=CO[C@@H](OC(=O)NCc2cccnc2)[C@H]2[C@@H]1CC[C@@H]2C [I-178]	5.8	6.3	–
CCC(CC)NC(=O)O[C@@H]1OC=C(C(=O)OC)[C@H]2CC=C(C)[C@@H]12 [I-102]	8.2	15.6	–
CCOC(=O)CNC(=O)C1=CO[C@@H](OC(=O)NC)[C@H]2[C@@H]1C[C@@H]1O[C@]21C [I-65]	32.4	73.4	–
COC(=O)C1=CO[C@@H](OC(=O)NCc2ccccn2)[C@@H]2C(C)=CC[C@H]12 [I-75]	4.3	11.7	–
CCCCCC[C@]12O[C@H]1C[C@@H]1C(C(=O)OC)=COC[C@@H]12 [I-298]	9.5	7.8	–
